Values of other authors in US20110129510A1, “FIBROUS SURFACE STRUCTURE CONTAINING ACTIVE INGREDIENTS WITH CONTROLLED RELEASE OF ACTIVE INGREDIENTS, USE THEREOF AND METHOD FOR THE PRODUCTION THEREOF” (BASF SE, priority 2008, published 2011).
≈ marks a conversion by molar mass, not a printed value. Where two headings read alike, the source gives them in different places.

Compound | Solubility in water (25° C.) | other results
NC(=O)N1c2ccccc2C=Cc2ccccc21 [Carbamazipine] | – | Solubility in water (RT): 945.1 µg/mL (≈ 4000 µM)
Clc1ccccc1C(c1ccccc1)(c1ccccc1)n1ccnc1 [Clotrimazole] | <10 µg/mL | –
CCOC(=O)C1=C(C)NC(C)=C(C(=O)OC)C1c1cccc(Cl)c1Cl (stereo not drawn) [Felodipine] | – | Solubility in water (22° C.): 4.53 µg/mL (≈ 11.8 µM)
COC1=CC(=O)C[C@@H](C)[C@]12Oc1c(Cl)c(OC)cc(OC)c1C2=O [Griseofulvin] | 0.03685 µg/mL (≈ 0.104 µM) | –
COc1ccc2c(c1)c(CC(=O)O)c(C)n2C(=O)c1ccc(Cl)cc1 [Indomethacin] | 14 µg/mL (≈ 39.1 µM) | –
CC(=O)N1CCN(c2ccc(OCC3COC(Cn4ccnc4)(c4ccc(Cl)cc4Cl)O3)cc2)CC1 (stereo not drawn) [Ketoconazole] | – | Solubility in water (37° C.): 80 µg/mL (≈ 151 µM)
